For data set [1] the following is noted: cited from earlier work.
For data set [2] the following is noted: cited from earlier work; for water/octanol partition coefficient (log P): chemical and physical properties tables.
A short description of data set [3]: Payload encapsulation (loading) efficiency in YPs by HPLC. Type of data set: physicochemical. As to the method:
Samples of YP-GET (10 μL, 10 mg YP/mL) were stained with Nile red (2 μL, 0.1 mg/mL) and fluorescein labeled concanavalin-A (FITC ConA, 2 μL, 0.1 mg/mL) to qualitatively assess loading by the fluorescence microscopy of the encapsulated fluorescent terpene-Nile red complex in the FITC ConA labeled yeast particle. Nile red was imaged using a rhodamine (red) filter (maxi-mum excitation/emission wavelengths at 550/570 nm) and FITC-ConA was imaged with a green filter at 490/520 nm. Microscopy images were collected with an Olympus BX60 upright compound fluorescent microscope. YP GET samples (100 mg) were centrifuged to collect excess liquid (free terpene and water) and the pellet fraction was resuspended in 10 mL of 90% methanol-10% water to extract encapsulated terpenes. Terpenes were quantified by HPLC operated with 32 KARAT™ software version 7.0 (Beckman Coulter, Inc, Brea, CA, USA), using a Waters […]® C18 column (3.5 μm, 4.6×150 mm) with acetonitrile:water 50:50 as mobile phase, flow rate at 1 mL/min, injection volume of 10 μL, and terpene detection at 254 nm. […] The quantification of terpenes was done by measuring the peak area and interpolating the concentration using a calibration curve obtained with terpene standards.
Terpenes were mixed with water and YPs from two different manufacturers and incubated at room temperature for 48 hours and encapsulation efficiency of terpenes in YPs was measured as described above after incubation at room temperature for 2 days.
Dry YPs from two different manufacturers were mixed with water (0.5mL water/g YP) for 30 minutes to obtain a uniform hydrated YP suspension. Limonene was added to the YP sample and incubated at 40° C. for one week to allow for complete limonene loading. Loading efficiency was quantitatively measured by the basic HPLC procedure described above using assay details listed in Table 10 and qualitatively assessed by fluorescence microscopy as described before. Particle diameter was measured as described before.
Dry YPs from two different manufacturers were mixed with water (0.5 to 2.5 mL water/g YP) for 30 minutes to obtain a uniform hydrated YP suspension. […] Loading efficiency was quantitatively measured by the basic HPLC procedure described above using assay details listed in Table 12 and qualitatively assessed by fluorescence microscopy as described above. Particle diameter was measured as described above.
Dry YPs from two different manufacturers were mixed with water (2.5 to 5 mL water/g YP) for 30 minutes to obtain a uniform hydrated YP suspension. Triallate was added to the YP sample and incubated at 40° C. for 3 to 7 days to allow for complete loading. Loading efficiency was quantitatively measured by the basic HPLC procedure described above using assay details listed in Table 14 and qualitatively assessed by fluorescence microscopy as described before. Particle diameter was measured as described before.
Dry GLPs/YPs were mixed with water (0.5 to 4.5 mL water g GLP/YP) for 30 minutes to obtain a uniform hydrated YP suspension. THC was added to the GLP/YP sample and incubated at 23° C. for 48 hours to allow for complete THC loading. Loading efficiency was quantitatively measured by the basic HPLC procedure described above using assay details listed in Table 16 and qualitatively assessed by fluorescence microscopy as described above. Particle diameter was measured as described above.
Two different kinds of dry YPs were mixed with water (0.5 to 4.5 mL water/g YP) for 30 minutes to obtain a uniform hydrated YP suspension. λCy was added to the YP sample and incubated at 55° C. for one week to allow for complete λCy loading. Loading efficiency was quantitatively measured by the basic HPLC procedure described above using assay details listed in Table 18 and qualitatively assessed by fluorescence microscopy as described before. Particle diameter was measured as described before.
PTP is highly soluble in acetone and dichloromethane. […]

For data set [4] the following is noted: Table 21, cited from earlier work.
A short description of data set [5]: Solubility in organic loading and leave-in solvents.
Data set [6] can be described thus: Payload release from YPs upon dilution in water (HPLC of supernatant). The data set is classed as physicochemical. As to the method: Sustained payload release from YPs occurs by payload diffusion out of the particles and is a function of the payload's solubility in water. […] Samples were incubated at room temperature. Amount of triallate released from the particles into the supernatant was quantified by HPLC as described before.
λCy-YP samples loaded at a w/w λCy:YP ratio of 1:1 were diluted in water ±surfactant (1% w/v IGEPAL) at target λCy concentrations of 0.001, 0.01, 0.1 and 1 mg/mL. Samples were incubated at room temperature for 3 hours. Supernatant was collected to measure amount of λCy released from the particles. The amount of λCy was quantified by HPLC as described above.
PTP-YP samples prepared without leave in solvent or with leave-in solvent GET424 or DMDA. Samples carrying PTP:YP weight ratio 1:1, PTP:GET:YP ratio of 1:1:1 or PTP:DMDA:YP ratio of 1:1:1 were diluted in water at a target PTP concentration of 0.001, 0.01, 0.1 and 1 mg/mL. Samples were incubated at room temperature. Supernatant was collected to measure amount of payload released from the particles.

The next data set can be described thus: physchem. To be noted: organic solvent or mixture.
The next data set concerns H. pylori. The settings on record: concentration of 2 mg/L; cited from earlier work.
The subject of another data set is C. albicans. To be noted: cited from earlier work.
The next data set relates to S. cerevisiae. To be noted: cited from earlier work.
The subject of another data set is Candida albicans SC5134. The data set is described as follows: Antimicrobial microplate assay (MIC 75%). The data set is classed as cell-based. As to the method: The antimicrobial activity of YP-GET was evaluated using a modified published microplate assay procedure (Sultanbawa, Y.; Cusack, A.; Currie, M.; Davis, C. An Innovative Microplate Assay to Facilitate the Detection of Antimicrobial 538Activity in Plant Extracts. J. Rapid Meth. Aut. Mic. 2009, 17 (4), 519-534. haps://doi.org/10.111/j.1745-4581.2009.00187.x). Samples of YP-GET were suspended in 100 μL of growth medium (LB 395was used in antibacterial assays and YPD in antifungal assays) and added to the first row 396 (Row A) of a 96-well plate (all wells in the 96-well plate contain additional 100 μL medium). Serial dilutions (1:1) were performed by transferring 100 μL from Row A to Row B, etc., and finally removing 100 μL from Row H. Diluted Escherichia coli Top10 (Invitrogen, Carlsbad CA), Staphylococcus aureus ATCC 19636 or Candida albicans SC5134 cells (100 μL, […]) were added to all wells of the plate. Initial (t=0) and final (t=16 h, 37° C.) absorbance readings were taken at 650 nm.

The mark [7] stands for this setting: chemical and physical properties tables.

In brackets after ≈: the same amount, converted by molar mass. Like-named read-outs stand apart in the source and are kept apart here.

Consider `OC(Cc1ccccc1Cl)(Cn1nc[nH]c1=S)C1(Cl)CC1` (stereo not drawn) [prothioconazole], for which the “Solubility Water” value in data set [1] (Table 21) was 22.5 µg/mL (≈ 0.0654 mM). The “water/octanol partition coefficient (log P)” value in data set [2] was 4.05. Besides, the encapsulation efficiency result in data set [3] (PRO:YP ratios up to 3:1, three loading cycles, acetone) is given as “more than 83%”. For the same molecule, in [4] (DMSO), the “Solubility DMSO” value was 126000 µg/mL (≈ 366 mM). Also, in data set [4] (acetone), the “Solubility Acetone” value was 444000 µg/mL (≈ 1290 mM). The “Solubility Ethyl acetate” value in data set [4] (ethyl acetate) is 220000 µg/mL (≈ 639 mM).

Take `C=C(C)[C@@H]1CCC(C)=C[C@H]1c1c(O)cc(CCCCC)cc1O` [CBD, cannabidiol]: the solubility in data set [5] (DMSO, organic solvent or mixture) was determined as 200000 µg/mL (≈ 636 mM); in data set [5] (GET424, organic solvent or mixture), 10000 µg/mL (≈ 31.8 mM). Also, the “CBD Solubility Ethanol” value in data set [5] (ethanol) is “Miscible at 1:1 weight ratio*”. Moreover, the “CBD Solubility Methanol” value in [5] (methanol) is listed as “Miscible at 1:1 weight ratio*”. Further, the “CBD Solubility Octanoic Acid (OA)” value in [5] (octanoic acid) is “Miscible at 0.5:1 CBD:OA ratio”. The “encapsulation efficiency” value in data set [3] (3:1 (CBD+OA):GLP ratio, OA leave-in solvent) is on record as “high encapsulation efficiency”; in data set [3] (CBD:YP weight ratios up to 5:1, multiple loading cycles, GLPs), “high encapsulation efficiency”.

For `CC(C)CC(C)c1sccc1NC(=O)c1cn(C)nc1C(F)(F)F` (stereo not drawn) [PTP, Penthiopyrad], the “PTP release from YPs” value in data set [6] (DMDA leave-in solvent, PTP:DMDA:YP 1:1:1) was “improved release at 0.1 and 0.01 mg PTP/mL”; in data set [6] (GET424 leave-in solvent, PTP:GET:YP 1:1:1) it was “improved release at 0.01 mg PTP/mL”; in data set [6] (without a leave-in solvent, PTP:YP 1:1), “released from YPs only at a concentration above maximum solubility in water”. In addition, the solubility in “physchem” is 200000 µg/mL (≈ 556 mM).

Consider `CC(C)N(C(=O)SCC(Cl)=C(Cl)Cl)C(C)C` [Triallate], for which the “triallate located inside YPs” value in [3] (triallate:YP w/w ratios up to 4:1, no solvent) is on record as 94 -100%. Further, the “release of triallate from the YP” value in [6] (dilution to 0.001 mg/mL, triallate:YP 3:1 and 4:1) is reported as roughly 100%.

Turning to `CC(C)=CCC/C(C)=C/CO` [Geraniol], the “Maximum solubility in water” value in [1] (Table 1) and in data set [1] (terpenes in the GET composition) was 686 µg/mL in each case. Besides, in data set [1] (Table 2), the “Solubility in Water” value was 686 µg/mL (≈ 4.45 mM). Moreover, the “in vitro growth of H. pylori” value in the data set on H. pylori was “inhibited”. Moreover, the “Log P” value in data set [2] (water/octanol, Table 2) is reported as 3.56. Further, the “growth of C. albicans strains” value with C. albicans is “inhibit the growth”. In addition, the “growth of S. cerevisiae strains” value in the data set with S. cerevisiae is “inhibit the growth”.

`CCCCCc1cc(O)c2c(c1)OC(C)(C)[C@@H]1CCC(C)=C[C@@H]21` [Tetrahydrocannabinol (THC), Tetrahydrocannabinol, reference compound]: the “Maximum solubility in water” value in [1] (Table 1) was 2.8 µg/mL. Further, in data set [1] (setting [7]), the “Solubility in Water” value is 2.8 µg/mL (≈ 0.0089 mM). In [2] (Table 1), the “Log P” value is reported as 5.9. Also, in data set [2], the “water/octanol partition coefficient (log P)” value is listed as 5.9. Besides, the “loading efficiency” value in data set [3] (THC:YP ratio of up to 5:1) is “high efficiency”.

For Clomazone, the “Log P” value in data set [2] (Table 1) is on record as 2.5. In data set [2], the “water/octanol partition coefficient (log P)” value is on record as 2.5. Moreover, the “clomazone located inside YPs” value in data set [3] (clomazone:YP w/w ratios up to 5:1, no solvent) was 96-100%.

With `C=C(C)[C@H]1CC=C(C)CC1` [Limonene], in data set [3] (limonene:YP ratio of 3:1, both types of YPs), the “loading efficiency” value is “high efficiency”.

For the molecule `CC1(C)C(/C=C(\Cl)C(F)(F)F)[C@H]1C(=O)O[C@H](C#N)c1cccc(Oc2ccccc2)c1` (stereo partly drawn) [Lambda cyhalotrin], in data set [1] (Table 1), the “Maximum solubility in water” value was 0.005 µg/mL. The “Solubility in Water” value in [1] (setting [7]) was 2.8 µg/mL (≈ 0.00622 mM). For the same molecule, in data set [2] (Table 1), the “Log P” value is reported as 7.0. For the same molecule, in [2], the “water/octanol partition coefficient (log P)” value is listed as 7.0. Moreover, the payload encapsulation in data set [3] (λCy:YP ratios up to 5:1, no solvent) is listed as 77-90%. In addition, the “λCy release from YPs” value in [6] (dilution to 0.001 mg λCy/mL, λCy:YP 1:1, 3 hours room temperature) is listed as “over 80%”.

On to `OC(Cn1cncn1)(Cn1cncn1)c1ccc(F)cc1F` [Fluconazole], for which, in the data set on Candida albicans SC5134, the “fold lower concentration than YP GET to reach MIC 75%” value turned out to be 10 fold.
